Reference: patent US5250679A, “Nonpeptidyl platelet aggregation inhibitors having specificity for the GPIIb III receptor” (Genentech, Inc., priority 1992, dated 1993)
Where a name gives a salt, the structure may show the parent alone. Read-outs that look alike come from different tables or passages of the source.

Target: T1, GP IIb IIIa (Homo sapiens, UniProt P05106+P08514)
T1 construct: from tissue; host or cells: outdated human platelets
Test: Fibrinogen-GP IIb IIIa Receptor ELISA Binding Assay (Fg/IIbIIIa)
Description: Briefly, microtiter plates are coated with fibrinogen (10 mg/ml) and then blocked with TACTS buffer containing 0.5% bovine serum albumin (BSA). […] After another wash a goat anti-mouse IgG conjugated to horseradish peroxidase is added. […] The reaction is stopped with 1N sulfuric acid and the absorbance at 492 nm is recorded. […] Outdated human platelets are washed 3 times with 10 mM tris-HCl, 150 mM NaCl (TBS), 1 mM EDTA, pH 7.5, and centrifuged at 2000×g to pellet cells. […] The supernatant fraction is collected and the supernatant is loaded onto a concanavalin-A column, previously equilibrated in TBS, 1 mM Ca2 Cl2, 0.1% Triton, 0.05% NaN3 and eluted with 0.2M a-methylmannoside. Fractions are pooled and loaded onto a heparin-agarose column. The flowthrough is collected and concentrated on an Amicon YM 30 filter to a volume of approximately 5-10 ml. The concentrate is then applied to an S-300 column (500 ml) and 6 ml fractions are collected. The GP IIb IIIa containing fractions are collected, pooled, and stored at -80° C. […] The precipitate is spun down in appropriate size bottles at 2000×g. The supernatant is decanted and the precipitate resuspended in 150 mM NaCl (approximately 50% of the original volume). […] The suspension is spun down and the precipitate is resuspended in Tris-saline in a minimal volume (approximately 5% of the original volume). Any remaining insoluble material is spun down at 2000 rpm in a Sorval type centrifuge and the fibrinogen supernatant is decanted and dialyzed overnight at 4° C. against Tris-saline. Characterization of the fibrinogen is by the Bradford protein assay, SDS-PAGE, and/or Western blotting using well known standard procedures. Briefly, 96 well plates are coated (Type Nunc 1 MaxisorpTM) with 10 mg/ml purified fibrinogen ([…]), and allowed to stand overnight at 4° C. […] The plates are again washed three times with PBS/Tween and then […] of sample in TNCNT is added. The mixture is incubated for 15 minutes at room temperature on a plate shaker. […] Fifty ml of this diluted GP IIb IIIa is then added to each well and incubated on a plate shaker at room temperature. After one hour, the plates are washed four times with PBS/Tween and 100 ml of a polyclonal or monoclonal antibody specific for GP IIIa such as AP3 (1 mg/ml) (See e.g. […] After a one hour incubation at room temperature on a plate shaker, the samples are washed 4 times with PBS/Tween. […] The color develops within about 3 to 20 minutes and the reaction is stopped with 100 ml 1M H2 SO4. The optical density at 492 nm vs 405 nm is recorded and IC50 values are determined.

[1] = Examples 29 and 30, Cmpd # tables, read-out: IC50 (μM) Fg/IIbIIIa
[2] = Example 29, Cmpd # 1-105, read-out: IC50 Fg/IIbI

T1 sequence (P08514 32-887 limits assumed): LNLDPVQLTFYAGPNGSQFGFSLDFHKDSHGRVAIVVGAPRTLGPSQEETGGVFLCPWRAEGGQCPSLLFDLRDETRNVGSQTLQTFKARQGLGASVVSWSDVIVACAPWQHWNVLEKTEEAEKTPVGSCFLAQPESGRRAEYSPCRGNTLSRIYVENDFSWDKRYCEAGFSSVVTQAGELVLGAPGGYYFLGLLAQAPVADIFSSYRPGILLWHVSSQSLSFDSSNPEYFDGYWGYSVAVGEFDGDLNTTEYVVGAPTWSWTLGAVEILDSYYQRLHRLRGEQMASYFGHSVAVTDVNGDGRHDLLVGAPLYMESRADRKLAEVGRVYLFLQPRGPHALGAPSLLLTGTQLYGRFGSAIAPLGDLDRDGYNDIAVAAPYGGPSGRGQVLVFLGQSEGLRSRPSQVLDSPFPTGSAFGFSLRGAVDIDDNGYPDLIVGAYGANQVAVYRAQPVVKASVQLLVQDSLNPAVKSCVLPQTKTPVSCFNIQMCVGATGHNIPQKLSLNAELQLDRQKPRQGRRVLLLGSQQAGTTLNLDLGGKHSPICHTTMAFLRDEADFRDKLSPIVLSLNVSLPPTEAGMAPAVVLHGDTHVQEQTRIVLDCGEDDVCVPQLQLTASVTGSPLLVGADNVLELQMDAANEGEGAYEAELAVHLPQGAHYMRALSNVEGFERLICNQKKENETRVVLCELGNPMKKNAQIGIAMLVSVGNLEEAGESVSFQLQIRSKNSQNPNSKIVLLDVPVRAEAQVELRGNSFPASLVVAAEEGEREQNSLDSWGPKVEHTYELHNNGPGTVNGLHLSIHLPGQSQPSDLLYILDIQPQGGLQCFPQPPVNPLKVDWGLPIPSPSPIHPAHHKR
T1 sequence (P08514 891-1039 partner limits assumed): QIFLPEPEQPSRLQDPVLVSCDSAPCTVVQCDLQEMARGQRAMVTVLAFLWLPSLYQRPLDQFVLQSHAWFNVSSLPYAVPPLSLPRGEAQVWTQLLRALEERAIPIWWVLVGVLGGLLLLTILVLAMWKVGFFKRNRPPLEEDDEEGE
T1 sequence (P05106 27-788): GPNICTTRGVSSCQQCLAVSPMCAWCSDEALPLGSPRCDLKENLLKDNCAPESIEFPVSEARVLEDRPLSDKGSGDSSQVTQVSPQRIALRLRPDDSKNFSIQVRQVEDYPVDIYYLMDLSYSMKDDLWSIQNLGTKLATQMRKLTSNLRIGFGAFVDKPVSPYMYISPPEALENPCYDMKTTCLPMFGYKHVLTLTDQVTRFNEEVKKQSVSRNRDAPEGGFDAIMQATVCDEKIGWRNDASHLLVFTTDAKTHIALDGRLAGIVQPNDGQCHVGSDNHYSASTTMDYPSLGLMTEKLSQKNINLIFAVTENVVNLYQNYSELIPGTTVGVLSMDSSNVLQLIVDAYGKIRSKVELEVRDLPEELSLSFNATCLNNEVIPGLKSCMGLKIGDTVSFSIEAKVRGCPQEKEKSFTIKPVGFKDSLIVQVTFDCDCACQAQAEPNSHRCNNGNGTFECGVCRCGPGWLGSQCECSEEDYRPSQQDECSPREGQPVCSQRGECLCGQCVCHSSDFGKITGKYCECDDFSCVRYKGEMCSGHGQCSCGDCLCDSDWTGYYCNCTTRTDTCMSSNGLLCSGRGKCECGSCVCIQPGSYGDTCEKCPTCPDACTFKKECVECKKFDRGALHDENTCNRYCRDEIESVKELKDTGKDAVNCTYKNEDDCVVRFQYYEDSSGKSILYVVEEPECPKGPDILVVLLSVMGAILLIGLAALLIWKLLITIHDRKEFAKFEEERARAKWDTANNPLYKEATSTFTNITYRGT

Structure (SMILES) | IC50 [1] [µM] | IC50 [2] [µM]
N=C(N)NCCCCCc1ccc2c(c1)C(=O)N(CCC(=O)O)CC(=O)N2 [Cmpd 30] |  | 0.204
CC1C(=O)N(C)c2ccc(CCCCNC(=N)N)cc2C(=O)N1CCC(=O)O (stereo not shown) [Cmpd 24] |  | 100
N=C(N)NCCCC#Cc1ccc2c(c1)C(=O)N(CCC(=O)O)CC(=O)N2Cc1ccc(F)cc1F [Cmpd 98] |  | 0.024
NCCCCCc1ccc2c(c1)C(=O)N(CCC(=O)O)CC(=O)N2Cc1ccc(F)cc1F [Cmpd 101] |  | 0.2
CN1C(=O)C(c2ccccc2)N(CCC(=O)O)C(=O)c2cc(CCCN)ccc21 (stereo not shown) [Cmpd 11] |  | 600
CN1C(=O)C(c2ccccc2)N(CCC(=O)O)C(=O)c2cc(C#CCN)ccc21 (stereo not shown) [Cmpd 13] |  | > 1000
N=C(N)NCCCCCCc1ccc2c(c1)C(=O)N(CCC(=O)O)CC(=O)N2Cc1ccc(C(F)(F)F)cc1 [Cmpd 89, 1-(p-trifluoromethylbenzyl)-4-(2-carboxyethyl)-7-(6-guanidinohexyl)-3,4-dihydro-1H-1,4-benzodiazepine-2,5-dione trifluoroacetate] |  | 0.047
CN1C(=O)CN(C(CC(=O)O)c2ccccc2)C(=O)c2cc(CCCCCCNC(=N)N)ccc21 (stereo not shown) [Cmpd 52] |  | 0.39
CN1C(=O)CN(CCC(=O)O)C(=O)c2cc(CCCCN)ccc21 [Cmpd 19] |  | 5
N=C(N)NCCCCCCc1ccc2c(c1)C(=O)N(CCC(=O)O)CC(=O)N2Cc1ccc(Cl)cc1 [Cmpd 65] |  | 0.05
CN1C(=O)CN(CCC(=O)O)C(=O)c2cc(C#CCNC(=N)N)ccc21 [Cmpd 6] |  | 0.17
NCCCCCc1ccc2c(c1)C(=O)N(CCC(=O)O)CC(=O)N2Cc1ccc(C(F)(F)F)cc1 [Cmpd 96, 1-(p-trifluoromethylbenzyl)-4-(2-carboxyethyl)-7-(5-aminopentyl)-3,4-dihydro-1H-1,4-benzodiazepine-2,5-dione trifluoroacetate] |  | 0.186
CN1C(=O)CN(CCC(=O)O)C(=O)c2cc(C#CCCCCN)ccc21 [Cmpd 41, 1-(methyl)-4-(2-carboxyethyl)-7-(6-amino-1-hexynyl)-3,4-dihydro-1H-1,4-benzodiazepine-2,5-dione trifluroacetate] |  | 0.1
CN1C(=O)CN(CCC(=O)O)C(=O)c2cc(CCc3ccc(CNC(=N)N)cc3)ccc21 [Cmpd 46] |  | 0.265
CN1C(=O)C2CCC(CC(=O)O)N2C(=O)c2cc(CCCNC(=N)N)ccc21 (stereo not shown) [Cmpd 18] |  | > 100
CN1C(=O)C2CCC(CC(=O)O)N2C(=O)c2cc(CCCNC(=N)N)ccc21 (stereo not shown) [Cmpd 16] |  | > 100
CN1C(=O)CN(CCC(=O)O)C(=O)c2cc(CCCCCCN)ccc21 [Cmpd 39] |  | 0.07
CC(CC(=O)O)N1CC(=O)N(C)c2ccc(C#CCCCN)cc2C1=O (stereo not shown) [Cmpd 37, 1-methyl-4-(2-carboxy-1-methylethyl)-7-(5-amino-1-pentyne)-3,4-dihydro-1H-1,4-benzodiazepine-2,5-dione trifluroacetate] |  | 0.061
N=C(N)NCCCCCc1ccc2c(c1)C(=O)N(CCC(=O)O)CC(=O)N2Cc1cccc(Oc2ccccc2)c1 [Cmpd 92, 1-(m-phenoxybenzyl)-4-(2-carboxyethyl)-7-(5-guanidinopentyl)-3,4-dihydro-1H-1,4-benzodiazepine-2,5-dione trifluoroacetate] |  | 0.011
CN1C(=O)C2CCC(CC(=O)O)N2C(=O)c2cc(CCCN)ccc21 (stereo not shown) [Cmpd 15] |  | > 100
CC1C(=O)N(C)c2ccc(C#CCCN)cc2C(=O)N1CCC(=O)O (stereo not shown) [Cmpd 25] |  | > 100
NCCCC#Cc1ccc2c(c1)C(=O)N(CCC(=O)O)CC(=O)N2Cc1ccc(F)cc1F [Cmpd 97] |  | 0.13
N=C(N)NCCCCC#Cc1ccc2c(c1)C(=O)N(CCC(=O)O)CC(=O)N2Cc1ccc(F)cc1F [Cmpd 100] |  | 0.025
CN1C(=O)C(c2ccccc2)N(CCC(=O)O)C(=O)c2cc(C#CCNC(=N)N)ccc21 (stereo not shown) [Cmpd 14] |  | 25
NCCCCCCc1ccc2c(c1)C(=O)N(CCC(=O)O)CC(=O)N2Cc1cccc(Oc2ccccc2)c1 [Cmpd 94, 1-(m-phenoxybenzyl)-4-(2-carboxyethyl)-7-(6-aminohexyl)-3,4-dihydro-1H-1,4-benzodiazepine-2,5-dione trifluoroacetate] |  | 0.009
NCCCc1ccc2c(c1)C(=O)N(CCC(=O)O)CC(=O)N2 [Cmpd 1] |  | 8.3
CN1C(=O)CN(CCC(=O)O)C(=O)c2cc(CCCN)ccc21 [Cmpd 3] |  | 28
NCCCCC#Cc1ccc2c(c1)C(=O)N(CCC(=O)O)CC(=O)N2Cc1ccc(F)cc1F [Cmpd 99] |  | 0.027
CN1C(=O)CN(CCC(=O)O)C(=O)c2cc(CCc3ccc(CN)cc3)ccc21 [Cmpd 45] |  | 0.085
NCCCCCc1ccc2c(c1)C(=O)N(CCC(=O)O)CC(=O)N2Cc1cccc(Oc2ccccc2)c1 [Cmpd 95, 1-(m-phenoxybenzyl)-4-(2-carboxyethyl)-7-(5-aminopentyl)-3,4-dihydro-1H-1,4-benzodiazepine-2,5-dione trifluoroacetate] |  | 0.108

Continued, values first:

IC50 [1] [µM] | IC50 [2] [µM] | Structure (SMILES)
0.008 |  | NCCCCCCc1ccc2c(c1)C(=O)N(CCC(=O)O)CC(=O)N2Cc1ccc(C(=O)O)cc1 [Cmpd 135, 1-(4-carboxyphenyl)methyl-4-(2-carboxyethyl)-7-(6-aminohexyl)-3,4-dihydro-1H-1,4-benzodiazapine-2,5-dione]
0.823 |  | N=C(N)NCCCC#Cc1ccc2c(c1)C(=O)N(CCC(=O)O)CC(Cc1ccccc1)O2 (stereo not shown) [Cmpd 149]
0.019 |  | NCCCCCCc1ccc2c(c1)C(=O)N(CCC(=O)O)CC(=O)N2Cc1ccc(NC(=O)CCN)cc1 [Cmpd 118]
0.02 |  | N=C(N)NCCCCCCc1ccc2c(c1)C(=O)N(CCC(=O)O)CC(=O)N2Cc1cccc(CCCCNC(=N)N)c1 [Cmpd 121]
0.048 |  | CN1C(=O)CN(CCC(=O)O)C(=O)c2cc3c(cc21)CCC(CCCCN)C3 (stereo not shown) [Cmpd 143]
80 |  | NCCCCCc1ccc2c(c1)C(=O)N(CCC(=O)O)CCO2 [Cmpd 146]
> 100 |  | NCCCC#Cc1ccc2c(c1)C(=O)N(CCC(=O)O)CCC2 [Cmpd 153, 2-(2-carboxyethyl)-8-(5-aminopentynyl)-2,3,4,5-tetrahydro-1H-2-benzazepin-1-one trifluoroacetate]
3 |  | N=C(N)NCCCCCc1ccc2c(c1)C(=O)N(CCC(=O)O)CCO2 [Cmpd 147]
0.153 |  | CN1C(=O)CN(CCC(=O)O)C(=O)c2cc3cc(CCCCN)ccc3cc21 [Cmpd 139]
0.176 |  | NCCCCCc1ccc2c(c1)C(=O)N(CCC(=O)O)CC(=O)N2Cc1ccc(C(=O)O)cc1 [Cmpd 136]
9 |  | NCCCC#Cc1cccc(C(=O)NCCC(=O)O)c1 [Cmpd 161]
20 |  | N=C(N)NCCCC#Cc1ccc2c(c1)C(=O)N(CCC(=O)O)CCC2 [Cmpd 154, 2-(2-carboxyethyl)-8-(5-guanidinopentynyl)-2,3,4,5-tetrahydro-1H-2-benzazepin-1-one trifluoroacetate]
0.024 |  | NCCCCCCc1ccc2c(c1)C(=O)N(CCC(=O)O)CC(=O)N2Cc1ccc(N)cc1 [Cmpd 128]
0.019 |  | N=C(N)NCCCCCCc1ccc2c(c1)C(=O)N(CCC(=O)O)CC(=O)N2Cc1ccc(C(=O)O)cc1 [Cmpd 134]
 | 0.016 | N=C(N)NCCCCCc1ccc2c(c1)C(=O)N(CCC(=O)O)CC(=O)N2Cc1ccc(F)cc1F [Cmpd 102]
0.552 |  | N=C(N)NCC#Cc1cccc(C(=O)NCCC(=O)O)c1 [Cmpd 159]
3.4 |  | N=C(N)NCCCCC#Cc1cccc(C(=O)NCCC(=O)O)c1 [Cmpd 164]
0.069 |  | CN1C(=O)CN(CCC(=O)O)C(=O)c2cc3cc(CCCCNC(=N)N)ccc3cc21 [Cmpd 140]
50 |  | N=C(N)NCCCCCCCCOc1ccc2c(c1)C(=O)N(CCC(=O)O)CCC2 [Cmpd 152, 2-(2-carboxyethyl)-8-(8-guanadinooctyloxy)-2,3,4,5-tetrahydro-1H-2-benzazepin-1-one trifluoroacetate]
 | 0.021 | NCCCCCCc1ccc2c(c1)C(=O)N(CCC(=O)O)CC(=O)N2Cc1ccc(F)cc1F [Cmpd 103, 1-(2,4-difluorophenyl)methyl-4-(2-carboxyethyl)-7-(6-aminohexyl)-3,4-dihydro-1H-1,4-benzodiazapine-2,5-dione]
0.013 |  | N=C(N)NCCCCCCc1ccc2c(c1)C(=O)N(CCC(=O)O)CC(=O)N2Cc1ccc(NC(=O)CCNC(=N)N)cc1 [Cmpd 119]
0.016 |  | N=C(N)NCCCCCc1ccc2c(c1)C(=O)N(CCC(=O)O)CC(=O)N2Cc1ccc(C(=O)O)cc1 [Cmpd 133]
